Results published in patent publication US20180326022A1, “COMPOSITIONS AND METHODS FOR IMPROVING HEART FUNCTION AND TREATING HEART FAILURE” (The Trustees of the University of Pennsylvania, priority 2017, published 2018).

How the values were obtained:
Type in all cases: cell-based
desmin KO myocytes = assay: AFM viscoelasticity, desmin KO mouse myocytes; conditions: KO + PTL
Experimental: (§1) Animal care and procedures were approved and performed in accordance with the standards set forth by the University of Pennsylvania Institutional Animal Care and Use Committee and the Guide for the Care and Use of Laboratory Animals published by the US National Institutes of Health. Desmin knockout mice and WT littermates were provided by Dr. Robert Bloch and have been previously characterized (36). Experiments were performed blinded to genotype.
(§2) Viral constructs were permitted to express for 24-72 hours with Moi=100-200. Parthenolide (Fisher Scientific NC9013142) treatment was carried out at room temperature for 2 hours at 10 μM. All experiments were performed within 48 hours of isolation, except those involving shTTL, which were allowed 72 hours to improve knockdown efficiency.
(§3) The elastic modulus of isolated cardiomyocytes was measured using AFM indentation. Optical microscopy and AFM were performed simultaneously using an MFP3D AFM (Asylum Research) combined with an inverted Nikon TE-2000U microscope equipped with a Nikon 100×, 1.49 NA objective. TTL expression was determined by dsRED fluorescence captured via 532 nm laser excitation (CrystaLaser) and a CCD camera (Cascade-512B, Photometrics) at 900 ms exposure time controlled through the NIS Elements software package. […] Modulus characterization of myocytes was performed using 4.26 μm radius (R below) SiO2 microparticle epoxied to SiN cantilevers with nominal spring constant 0.03 N/m (CP-PNPS-SiO-A, Nano And More, USA). Cantilever spring constants were manually calibrated in air by thermal vibrations using the MFP3D prior to each experiment using a clean glass substrate. Inverse optical lever sensitivity was determined in myocyte buffer solution prior to each round of measurements.
(§4) E is the elastic modulus, υ, is the cell Poisson ratio and δ is the indentation depth. Transverse compression of the cardiomyocyte is performed over a range of indentation speeds and the indentation speed is divided by the total indentation depth to obtain an effective indentation rate, f. […]

human myocytes = assay: Nanoindentation stiffness measurements; conditions: failing human myocytes; 10 μM, 2 hours
Experimental: Viable myocytes were concentrated by gravity (5-7 min) and supernatant was aspirated to remove dead cells. Myocytes were resuspended in NT solution containing 1 mM Ca^2+ and concentrated by gravity (5-7 min) again. Cardiomyocytes used acutely were maintained in NT solution for up to 6 hours. Myocytes were treated with 10 μM parthenolide (Fisher Scientific NC9013142 or Sigma P0667) or 10 μM colchicine (Sigma) at room temperature in NT solution for 2 hours. Experiments were performed within 6 hours of isolation, except for those involving viral transduction in cultured cells.
MatTek glass bottom dish was coated 5 μl of 0.5 mg/ml laminin and air dried for 10 min. Culture medium was F-10 (1×) Nutrient Mixture (Ham) [+] L-Glutamine (Life Technologies, 11550-043) supplemented with insulin-transferrin selenium-X (Gibco, 51500-056), 20 mM HEPES, 1 μg/μl primocin (Invivogen, ant-pm-1), 0.4 mM extra CaCl2, 5% FBS, 25 μM cytochalasin D (Cayman, 11330). Viable myocytes were concentrated and a proper amount of medium was added in culture so that neighboring cells were not in direct contact. […]
Mechanical properties at the microscopic scale were measured using nanoindentation (Piuma, Optics11, The Netherlands). […] The Young's moduli were calculated automatically by the software, by fitting the force vs. indentation curve to the Hertz equation. […]

[1] = system: primary adult rat cardiomyocytes; assay: Cell contractility (sarcomere shortening, 1 Hz pacing); conditions: rat cardiomyocytes, 1 Hz; PTL 10 μM 2 hours
Experimental: as §2
Experiments were performed in custom-fabricated cell chambers (Ionoptix) mounted on an LSM Zeiss 780 inverted confocal microscope using a 40× oil 1.4 NA objective and transmitted light camera (IonOptix MyoCam-S). For contractility assays, cells were maintained in NT solution and electrical field stimulation was provided at 1 Hz with a myopacer (IonOptix MYP100) through platinum electrodes lowered into the bath. Sarcomere length was measured optically by Fourier transform analysis (IonWizard, IonOptix). After 15 s of 1 Hz pacing to achieve steady state, five traces were recorded and analyzed.

WT myocytes = assay: AFM viscoelasticity, WT mouse myocytes; conditions: WT + PTL
Experimental: as §1, §2, §3, §4

C=C1C(=O)O[C@H]2[C@H]1CC/C(C)=C/CC[C@@]1(C)O[C@@H]21 [PTL, 4,5-epoxygermacra-1(10),11(13)-dien-12,6-olactone]
E1 (Pa) (desmin KO myocytes): 429.76 Pa
E2 (Pa) (desmin KO myocytes): 512.2 Pa
η (Pa*s) (desmin KO myocytes): 27.4 Pa*s
viscoelasticity (Emax and EΔ) (human myocytes): robustly reduced viscoelasticity
Resting SL (μm) [1]: 1.803 μm
Vmax (μm/s) [1]: −5.35 μm/s
Vmin (μm/s) [1]: 4.28 μm/s
ΔSL (μm) [1]: 0.201 μm
E1 (Pa) (WT myocytes): 533.11 Pa
E2 (Pa) (WT myocytes): 627.4 Pa
η (Pa*s) (WT myocytes): 32.9 Pa*s
